How the values were obtained:
insulin resistance (IR) = assay: Glucose supply and insulin demand model: effect on insulin resistance; format: in vivo, human; details: for IR reduction: adjustment factor = decrease in insulin resistance at the therapeutic dose of Table 1, T2D
Description: (§1) Therapeutic targets of the glucose supply (CE, 1+2; HGU, 3; GNG, 4; IR, 5) and insulin demand (PGU, 6; PIE, 7) model are presented in FIG. 1. To identify quantitative differences between antidiabetic agents on CE, HGU, GNG, IR, PGU, and PIE, multidatabase searches (Cochrane Central Register of Controlled Trials and Cochrane Register of Systematic Reviews, Embase, OVID Healthstar, OVID Journals, and PubMed) were conducted cross-referencing title and keywords for all selected antidiabetic therapies and their respective targets.
(§2) Alpha-glucosidase, biguanide, and thiazolidinedione (TZD) studies with long-term, pre-post design at maximal therapeutic doses were identified to simulate chronic administration. To maintain consistency with cardiovascular trials and accommodate known influences of hyperglycemia and hyperinsulinemia on the respective targets,^13-16 studies including patients with HbA1c in the range of 6-8% and body mass index (BMI)≧30 kg/m^2 were preferentially selected. In the event multiple studies were available to identify the effect of an agent on a therapeutic target, the mean percent change was used. Conversely, if there was evidence that an agent would elicit a response on a given target but no mathematical representation of the difference was provided, conservative estimates consistent with the scale of other agents and the degree of glucose regulation were instituted to best represent the expected effect. Individual agents were then characterized for the 24 h percent change from baseline for CE, HGU, GNG, IR, PGU, and PIE. Carbohydrate exposure was determined as the combined effect of caloric intake and intestinal carbohydrate absorption. Hepatic glucose uptake was defined as the reported value obtained immediately following oral glucose loading. Because GNG is known to be enhanced in the fasting state and persistent throughout the prandial phase,^17,18 effect was determined during the fasting state and considered equivalent throughout the prandial phase. For studies evaluating fasting glucose and insulin concentrations, an index of IR was determined by homeostasis model assessment of insulin resistance (HOM-AIR) using the following formula: Insulin (mU/liter)×Glucose (mmol)/22.5.^19 To account for known differences in secretory and uptake dynamics during the fasting and prandial phases, studies identifying the impact of therapies during the fasting state (or simulated hyperinsulinemic euglycemic clamp) and prandial phase (or oral glucose load insulin clamp) were specifically identified for changes in PGU (glucose infusion rate) and PIE (insulin concentrations) according to Equation (1): […]
(§3) For sulfonylurea and insulin-based therapies, insulin concentration time profiles were obtained and superimposed on the baseline 24 h insulin concentration time profile of T2D patients (FIG. 2) to calculate the increase in PIE (trapezoidal rule).^20 Calculated increases in incremental and cumulative insulin exposure were correlated to known insulin dose-response effects on HGU, GNG, and PGU (FIG. 3),^18,21 according to the equation y=mx+b. Twenty-four-hour increases in HGU, PGU, and PIE and decreases in GNG were compared to baseline values and percent change calculated.
(§4) With alpha-glucosidase, biguanide, TZD, secretagogue, and insulin therapies characterized for their respective impacts on CE, HGU, GNG, IR, PIE, and PGU, identification of their effect on the glucose supply (decrease in CE, increase in HGU, decrease in GNG, decrease in IR) and insulin demand (increase in PIE, increase in PGU) dynamic was assessed according to Equation (2), which provides the SD ratio according to the invention: […]

[1] = tested on: hepatic glucose uptake (HGU); assay: Glucose supply and insulin demand model: effect on hepatic glucose uptake; format: in vivo, human; details: for HGU uptake: adjustment factor = increase in hepatic glucose uptake at the therapeutic dose of Table 1, T2D
Description: as §1, §2, §3, §4

[2] = tested on: carbohydrate exposure (CE); assay: Glucose supply and insulin demand model: effect on carbohydrate exposure; format: in vivo, human; design: scale not given here; details: for CE inhibition: adjustment factor = decrease in carbohydrate exposure at the therapeutic dose of Table 1, T2D
Description: as §1, §2, §3, §4

[3] = tested on: peripheral insulin exposure (PIE); assay: Glucose supply and insulin demand model: effect on peripheral insulin exposure; format: in vivo, human; design: PIE (24 h insulin exposure): unit not given here; details: for PIE: adjustment factor = increase in peripheral insulin exposure at the therapeutic dose of Table 1, T2D
Description: as §1, §2, §3, §4
Twenty-four-hour steady state insulin concentration time curves were superimposed on the baseline secretion profile of the standard T2D patient.

[4] = tested on: peripheral glucose uptake (PGU); assay: Glucose supply and insulin demand model: effect on peripheral glucose uptake; format: in vivo, human; details: for PGU: adjustment factor = increase in peripheral glucose uptake at the therapeutic dose of Table 1, T2D
Description: as §1, §2, §3, §4

[5] = tested on: hepatic gluconeogenesis (GNG); assay: Glucose supply and insulin demand model: effect on hepatic gluconeogenesis; format: in vivo, human; details: for GNG inhibition: adjustment factor = decrease in hepatic gluconeogenesis at the therapeutic dose of Table 1, T2D
Description: as §1, §2, §3, §4

[6] = tested on: hepatic gluconeogenesis (GNG); details: cited from earlier work
[7] = Metformin 2000 mg, Glyburide 10 mg, Pioglitazone 45 mg, Insulin Glargine 0.5 U/kg daily, pH encapsulated glucose 3.0 grams/day
[8] = Insulin Glargine 1.0 U/Kg daily
[9] = insulin glargine 0.5 U/kg, from insulin dose-response relationship

Compound	IR reduction (insulin resistance (IR))	HGU uptake [1]	PIE [3]	PGU [4]	GNG inhibition [5]	CE inhibition [2]	also measured
COc1ccc(Cl)cc1C(=O)NCCc1ccc(S(=O)(=O)NC(=O)NC2CCCCC2)cc1 [Glyburide]	0.00	0.14	0.21	0.36	0.07	–	Score IR (insulin resistance (IR); [7]): 0.00; Score HGU [1, 7]: 0.14; Score CE [2, 7]: 0.00; Score PIE [3, 7]: 0.21; Score PGU [4, 7]: 0.36; Score HGI [5, 7]: 0.07
CN(CCOc1ccc(CC2SC(=O)NC2=O)cc1)c1ccccn1 (stereo not drawn) [Rosiglitazone]	0.39	–	−0.10	–	0.23	–	–
CCC1=C(C)CN(C(=O)NCCc2ccc(S(=O)(=O)NC(=O)N[C@H]3CC[C@H](C)CC3)cc2)C1=O [Glimepiride]	0.00	0.18	0.24	0.39	0.08	–	–
OCCN1C[C@H](O)[C@@H](O)[C@H](O)[C@H]1CO [Miglitol]	0.15	0.15	0.05	0.25	0.05	–	hepatic glucose output ([6]; Schnack, miglitol 300 mg/day, eight weeks, euglycemic clamp, poorly controlled T2D, placebo 0.35±0.17, not significant): 0.37±0.15 mg/kg^−1/min^−1; change in hepatic glucose production ([6]; Sels, miglitol 200 mg at bedtime for 1 week, T2D): not associated with a change in hepatic glucose production
Insulin Regular	0.00	0.21	0.33	0.64	0.11	0.00	–
Insulin Lispro	0.00	0.23	0.42	0.80	0.14	0.00	–
CCOc1cc(CC(=O)N[C@@H](CC(C)C)c2ccccc2N2CCCCC2)ccc1C(=O)O [Repaglinide]	0.00	0.16	0.20	0.31	0.07	–	–
CC(C)[C@H]1CC[C@H](C(=O)N[C@H](Cc2ccccc2)C(=O)O)CC1 [Nateglinide]	0.00	0.21	0.34	0.60	0.11	–	–
CCCNC(=O)NS(=O)(=O)c1ccc(Cl)cc1 [Chlorpropamide]	0.00	0.14	0.21	0.36	0.07	–	–
Insulin Glargine	0.00	0.24	0.30	0.42	0.10	0.00	Score IR (insulin resistance (IR); [8]): 0.00; Score IR (insulin resistance (IR); [7]): 0.00; Score HGU [1, 8]: 0.48; Score HGU [1, 7]: 0.24; increase in HGU [1, 9]: 24%; Score CE [2, 8]: 0.00; Score CE [2, 7]: 0.00; Score PIE [3, 8]: 0.60; Score PIE [3, 7]: 0.30; PIE (24 h insulin exposure) ([3]; insulin glargine 0.5 U/kg superimposed on standard T2D profile, baseline 5765): 7495; increase in PIE versus baseline ([3]; insulin glargine 0.5 U/kg, 24 h profile superimposed on standard T2D profile, trapezoidal rule): 30%; Score PGU [4, 8]: 0.84; Score PGU [4, 7]: 0.42; increase in PGU [4, 9]: 42%; Score HGI [5, 8]: 0.20; Score HGI [5, 7]: 0.10; decrease in GNG [5, 9]: 10%
Insulin Isophane	0.00	0.23	0.28	0.40	0.10	0.00	–
Insulin Ultralente	0.00	0.17	0.24	0.38	0.08	0.00	–
Insulin Aspart	0.00	0.23	0.42	0.80	0.14	0.00	–
C[C@H]1O[C@H](O[C@H]2[C@H](O)[C@@H](O)[C@@H](O[C@H]3[C@H](O)[C@@H](O)C(O)O[C@@H]3CO)O[C@@H]2CO)[C@H](O)[C@@H](O)[C@@H]1N[C@H]1C=C(CO)[C@@H](O)[C@H](O)[C@H]1O (stereo partly drawn) [Acarbose]	0.15	0.15	0.05	0.25	0.05	–	–
Cc1c(C)c2c(c(C)c1O)CCC(C)(COc1ccc(CC3SC(=O)NC3=O)cc1)O2 (stereo not drawn) [Troglitazone]	0.35	0.40	−0.10	0.67	0.22	–	–
Insulin Aspart Protamine	0.00	0.23	0.28	0.40	0.10	0.00	–
CCCCNC(=O)NS(=O)(=O)c1ccc(C)cc1 [Tolbutamide]	0.00	0.14	0.21	0.36	0.07	–	–
Insulin Lente	0.00	0.23	0.28	0.40	0.10	0.00	–
Cc1ccc(S(=O)(=O)NC(=O)NN2CCCCCC2)cc1 [Tolazamide]	0.00	0.14	0.21	0.36	0.07	–	–
CCc1ccc(CCOc2ccc(CC3SC(=O)NC3=O)cc2)nc1 (stereo not drawn) [Pioglitazone]	0.35	0.40	−0.10	0.59	0.21	–	Score IR (insulin resistance (IR); [7]): 0.35; Score HGU [1, 7]: 0.40; Score CE [2, 7]: 0.00; Score PIE [3, 7]: −0.10; Score PGU [4, 7]: 0.59; Score HGI [5, 7]: 0.21
Insulin Lispro Protamine	0.00	0.23	0.28	0.40	0.10	0.00	–
CC(=O)c1ccc(S(=O)(=O)NC(=O)NC2CCCCC2)cc1 [Acetohexamide]	0.00	0.14	0.21	0.36	0.07	–	–
Cc1cnc(C(=O)NCCc2ccc(S(=O)(=O)NC(=O)NC3CCCCC3)cc2)cn1 [Glipizide]	0.00	–	–	–	0.08	–	–
